pKi: −log10 of the molar value.
Key:
[1] = target: CRBN-DDB1 protein complex (Homo sapiens, UniProt Q96SW2); test: Fluorescence Polarization (FP) assay, displacement of Cy5-labelled thalidomide; settings: 25 nM CRBN-DDB1, 5 nM Cy5-labelled thalidomide, read-out: CRBN binding Ki
Description: CRBN-DDB1 protein complex was mixed with Cy5-labelled thalidomide and a compound to be tested (the “test compound”). […] The test solution was added to a 384-well assay plate.
The plate was spun-down (1 min, 1000 rpm, 22° C.) and then shaken using a VibroTurbulator for 10 min at room temperature (20-25° C.), with the frequency set to level 3. The assay plate with protein and the tracer was incubated for 60 min at room temperature (20-25° C.) prior to read-out with a plate reader.
The FP experiment was carried out with various concentrations of the test compounds in order to measure Ki values.

IKZF1 = IKZF1 degradation assay, H929 cell line (Western blot densitometry); type: cell-based; settings: for % of IKZF1 protein reduction, based on densitometry values: 24 h
Description: Cells were seeded on 6- or 12-well plates, and the compounds to be tested were added at the desired concentration range. […] After 6 or 24 h incubation (3TC, 5% CO2), cells were harvested, washed and cell lysates were prepared using RIPA lysis buffer. The amount of protein was determined via BCA assay, and the appropriate quantity was then loaded on the precast gel for the protein separation. After primary and secondary Ab staining, the membranes were washed and signals developed. The densitometry analysis was implemented to obtain the numeric values used later in the protein level evaluation process. […] The treatment with all compounds was carried out for 24 h.

IKZF3 = IKZF3 degradation assay, H929 cell line (Western blot densitometry); type: cell-based; settings: 24 h
Description: (§1) Cells were seeded on 6- or 12-well plates, and the compounds to be tested were added at the desired concentration range. […] After 24 h incubation (3TC, 5% CO2), cells were harvested, washed and cell lysates were prepared using RIPA lysis buffer. The amount of protein was determined via BCA assay, and the appropriate quantity was then loaded on the precast gel for the protein separation. After primary and secondary Ab staining, the membranes were washed and signals developed. The densitometry analysis was implemented to obtain the numeric values used later in the protein level evaluation process.
(§2) The treatment with all compounds was carried out for 24 h.
(§3) Densitometry values are normalized to the loading control ((3-ACTIN) and presented as % of DMSO control, using the following labels: […]

CK1α = CK1α degradation assay, Kelly cell line (Western blot densitometry); type: cell-based; settings: 24 h
Description: as §1, with “6-well” for “6- or 12-well”, “(37° C.,” for “(3TC,”, “were” for “were harvested,”
as §2, §3

Sequence of CRBN-DDB1 protein complex (Q96SW2 whole entry): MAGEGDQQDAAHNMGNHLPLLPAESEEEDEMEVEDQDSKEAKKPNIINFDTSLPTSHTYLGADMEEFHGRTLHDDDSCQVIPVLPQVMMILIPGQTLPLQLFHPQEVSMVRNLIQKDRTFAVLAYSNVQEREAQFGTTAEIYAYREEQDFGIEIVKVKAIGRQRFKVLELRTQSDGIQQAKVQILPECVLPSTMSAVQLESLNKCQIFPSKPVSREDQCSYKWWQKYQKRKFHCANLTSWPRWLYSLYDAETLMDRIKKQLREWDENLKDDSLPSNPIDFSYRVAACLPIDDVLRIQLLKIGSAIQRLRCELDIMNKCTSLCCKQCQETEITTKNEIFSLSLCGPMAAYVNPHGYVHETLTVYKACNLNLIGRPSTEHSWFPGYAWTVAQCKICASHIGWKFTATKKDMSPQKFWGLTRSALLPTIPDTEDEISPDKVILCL
Sequence of CRBN-DDB1 protein complex (Q16531 whole entry partner): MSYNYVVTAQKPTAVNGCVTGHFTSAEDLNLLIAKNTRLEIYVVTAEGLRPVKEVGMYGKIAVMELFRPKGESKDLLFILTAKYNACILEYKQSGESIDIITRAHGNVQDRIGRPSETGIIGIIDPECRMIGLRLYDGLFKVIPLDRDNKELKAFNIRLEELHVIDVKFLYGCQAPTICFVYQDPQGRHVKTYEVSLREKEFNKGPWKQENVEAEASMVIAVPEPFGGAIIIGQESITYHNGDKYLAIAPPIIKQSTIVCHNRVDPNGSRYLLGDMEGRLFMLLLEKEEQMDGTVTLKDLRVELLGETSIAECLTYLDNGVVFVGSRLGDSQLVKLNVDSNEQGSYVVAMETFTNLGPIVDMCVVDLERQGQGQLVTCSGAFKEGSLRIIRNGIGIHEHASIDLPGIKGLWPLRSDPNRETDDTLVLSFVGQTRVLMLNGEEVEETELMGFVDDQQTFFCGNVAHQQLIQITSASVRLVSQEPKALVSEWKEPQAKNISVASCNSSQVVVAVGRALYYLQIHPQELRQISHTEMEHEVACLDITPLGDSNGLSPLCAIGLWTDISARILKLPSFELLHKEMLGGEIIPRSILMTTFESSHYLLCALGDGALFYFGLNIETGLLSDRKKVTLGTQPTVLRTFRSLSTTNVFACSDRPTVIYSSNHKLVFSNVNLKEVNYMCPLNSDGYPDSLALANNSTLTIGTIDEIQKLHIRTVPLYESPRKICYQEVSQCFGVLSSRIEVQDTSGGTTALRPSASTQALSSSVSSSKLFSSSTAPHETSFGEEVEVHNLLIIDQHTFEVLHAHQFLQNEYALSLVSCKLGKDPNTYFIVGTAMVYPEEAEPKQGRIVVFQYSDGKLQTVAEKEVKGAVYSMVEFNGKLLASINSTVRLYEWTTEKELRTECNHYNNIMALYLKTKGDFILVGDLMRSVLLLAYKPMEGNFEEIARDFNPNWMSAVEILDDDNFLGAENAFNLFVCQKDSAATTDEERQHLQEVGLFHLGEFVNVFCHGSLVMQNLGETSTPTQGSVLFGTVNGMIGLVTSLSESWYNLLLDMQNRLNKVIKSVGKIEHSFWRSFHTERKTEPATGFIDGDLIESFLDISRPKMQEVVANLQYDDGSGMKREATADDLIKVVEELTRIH

| SMILES | pKi [1] | % of IKZF1 protein reduction, IKZF 1 (24 H, 20 μM) (IKZF1) | also measured |
| --- | --- | --- | --- |
| O=C1CCC(NC(=O)c2sc(Cl)c3cccnc23)C(=O)N1 (centres unmarked) [Compound 106, 5-chloro-N-(2,6-dioxopiperidin-3-yl)thieno[3,4-b]pyridine-7-carboxamide] | > 5.30 | ≤25% (≤25% for 0-25% of IKZF1 protein reduction) | % of IKZF1 protein reduction, based on densitometry values (IKZF1; 1 μM): ≤25% (≤25% for 0-25% of IKZF1 protein reduction); % of IKZF1 protein reduction, based on densitometry values (IKZF1; 10 μM): ≤25% (≤25% for 0-25% of IKZF1 protein reduction); % of IKZF3 protein reduction, based on densitometry values (IKZF3; 1 μM): ≤25% (≤25% for 0-25% of IKZF3 protein reduction); % of IKZF3 protein reduction, based on densitometry values (IKZF3; 10 μM): ≤25% (≤25% for 0-25% of IKZF3 protein reduction) |
| COc1csc(NC(C)=O)c1C(=O)NC1CCC(=O)NC1=O (centres unmarked) [Compound 8, N-(2,6-dioxopiperidin-3-yl)-2-acetamido-4-methoxythiophene-3-carboxamide] | 5.00 to 5.30 | ≤25% (≤25% for 0-25% of IKZF1 protein reduction) | – |
| CC(C)(C)OC(=O)Nc1sccc1C(=O)NC1CCC(=O)NC1=O (centres unmarked) [Compound 1, tert-butyl (3-((2,6-dioxopiperidin-3-yl)carbamoyl)thiophen-2-yl)carbamate] | 4.30 to 5.00 | ≤25% (≤25% for 0-25% of IKZF1 protein reduction) | – |
| COCc1ncc(C(=O)NC2CCC(=O)NC2=O)s1 (centres unmarked) [Compound 111, N-(2,6-dioxopiperidin-3-yl)-2-(methoxymethyl)thiazole-5-carboxamide] | 4.30 to 5.00 | ≤25% (≤25% for 0-25% of IKZF1 protein reduction) | % of IKZF1 protein reduction, based on densitometry values (IKZF1; 1 μM): ≤25% (≤25% for 0-25% of IKZF1 protein reduction); % of IKZF1 protein reduction, based on densitometry values (IKZF1; 10 μM): ≤25% (≤25% for 0-25% of IKZF1 protein reduction); % of IKZF3 protein reduction, based on densitometry values (IKZF3; 1 μM): ≤25% (≤25% for 0-25% of IKZF3 protein reduction); % of IKZF3 protein reduction, based on densitometry values (IKZF3; 10 μM): ≤25% (≤25% for 0-25% of IKZF3 protein reduction) |
| O=C1CCC(NC(=O)c2cnc(CNC(=O)OCc3ccccc3)s2)C(=O)N1 (centres unmarked) [Compound 74, benzyl ((5-((2,6-dioxopiperidin-3-yl)carbamoyl)thiazol-2-yl)methyl)carbamate] | 4.30 to 5.00 | ≤25% (≤25% for 0-25% of IKZF1 protein reduction) | – |
| COc1sc(Cl)cc1C(=O)NC1CCC(=O)NC1=O (centres unmarked) [Compound 37, 5-chloro-N-(2,6-dioxopiperidin-3-yl)-2-methoxythiophene-3-carboxamide] | > 5.30 | ≤25% (≤25% for 0-25% of IKZF1 protein reduction) | – |
| CC(=O)Nc1sc(C(F)(F)F)cc1C(=O)NC1CCC(=O)NC1=O (centres unmarked) [Compound 42, N-(2,6-dioxopiperidin-3-yl)-2-acetamido-5-(trifluoromethyl)thiophene-3-carboxamide] | 5.00 to 5.30 | ≤25% (≤25% for 0-25% of IKZF1 protein reduction) | – |
| O=C1CCC(NC(=O)c2cc(Cl)sc2NC(=O)C2CC2)C(=O)N1 (centres unmarked) [Compound 6, 5-chloro-2-cyclopropaneamido-N-(2,6-dioxopiperidin-3-yl)thiophene-3-carboxamide] | > 5.30 | ≤25% (≤25% for 0-25% of IKZF1 protein reduction) | – |
| CC(=O)Nc1sccc1C(=O)N(C)C1CCC(=O)NC1=O (centres unmarked) [Compound 5, N-(2,6-dioxopiperidin-3-yl)-2-acetamido-N-methylthiophene-3-carboxamide] | 4.30 to 5.00 | ≤25% (≤25% for 0-25% of IKZF1 protein reduction) | – |
| CC(C)(C)c1ncc(C(=O)NC2CCC(=O)NC2=O)s1 (centres unmarked) [Compound 73, 2-(tert-butyl)-N-(2,6-dioxopiperidin-3-yl)thiazole-5-carboxamide] | 4.30 to 5.00 | ≤25% (≤25% for 0-25% of IKZF1 protein reduction) | – |
| CS(=O)(=O)Nc1sccc1C(=O)NC1CCC(=O)NC1=O (centres unmarked) [Compound 13, N-(2,6-dioxopiperidin-3-yl)-2-methanesulfonamidothiophene-3-carboxamide] | 5.00 to 5.30 | ≤25% (≤25% for 0-25% of IKZF1 protein reduction) | – |
| CNC(=O)c1cc(C(=O)NC2CCC(=O)NC2=O)c(NC(C)=O)s1 (centres unmarked) [Compound 14, 5-acetamido-N^4-(2,6-dioxopiperidin-3-yl)-5-acetamido-N^2-methylthiophene-2,4-dicarboxamide] | 5.00 to 5.30 | ≤25% (≤25% for 0-25% of IKZF1 protein reduction) | – |
| CSc1ncc(C(=O)NC2CCC(=O)NC2=O)s1 (centres unmarked) [Compound 76, N-(2,6-dioxopiperidin-3-yl)-2-(methylthio)thiazole-5-carboxamide] | 4.30 to 5.00 | ≤25% (≤25% for 0-25% of IKZF1 protein reduction) | – |
| CC(=O)Nc1scc(Cl)c1C(=O)NC1CCC(=O)NC1=O (centres unmarked) [Compound 43, 4-chloro-N-(2,6-dioxopiperidin-3-yl)-2-acetamidothiophene-3-carboxamide] | 4.30 to 5.00 | ≤25% (≤25% for 0-25% of IKZF1 protein reduction) | – |
| O=C1CCC(NC(=O)c2csc(-c3ccccc3)c2)C(=O)N1 (centres unmarked) [Compound 57, N-(2,6-dioxopiperidin-3-yl)-5-phenylthiophene-3-carboxamide] | > 5.30 | ≤25% (≤25% for 0-25% of IKZF1 protein reduction) | – |
| COc1sccc1C(=O)N[C@@H]1CCC(=O)NC1=O [Compound 22, (R)—N-(2,6-dioxopiperidin-3-yl)-2-methoxythiophene-3-carboxamide] | 4.30 to 5.00 | ≤25% (≤25% for 0-25% of IKZF1 protein reduction) | % of CK1α protein reduction, based on densitometry values (CK1α; 20 μM): >25% (>25% for 26-74% of CK1α protein reduction) |
| CC(=O)Nc1sc(Cl)cc1C(=O)NC1CCC(=O)NC1=O (centres unmarked) [Compound 12, 5-Chloro-N-(2,6-dioxopiperidin-3-yl)-2-acetamidothiophene-3-carboxamide] | 5.00 to 5.30 | ≤25% (≤25% for 0-25% of IKZF1 protein reduction) | – |
| Nc1sccc1C(=O)NC1CCC(=O)NC1=O (centres unmarked) [Compound 36, 2-amino-N-(2,6-dioxopiperidin-3-yl)thiophene-3-carboxamide] | > 5.30 | ≤25% (≤25% for 0-25% of IKZF1 protein reduction) | – |
| CCCCC(=O)Nc1sc(Cl)cc1C(=O)NC1CCC(=O)NC1=O (centres unmarked) [Compound 3, 5-chloro-N-(2,6-dioxopiperidin-3-yl)-2-pentanamidothiophene-3-carboxamide] | > 5.30 | ≤25% (≤25% for 0-25% of IKZF1 protein reduction) | – |
| COc1ncc(C(=O)NC2CCC(=O)NC2=O)s1 (centres unmarked) [Compound 75, N-(2,6-dioxopiperidin-3-yl)-2-methoxythiazole-5-carboxamide] | 4.30 to 5.00 | ≤25% (≤25% for 0-25% of IKZF1 protein reduction) | – |
| CC(=O)Nc1sc(C2CC2)c(Cl)c1C(=O)NC1CCC(=O)NC1=O (centres unmarked) [Compound 19, 4-chloro-5-cyclopropyl-N-(2,6-dioxopiperidin-3-yl)-2-acetamidothiophene-3-carboxamide] | 5.00 to 5.30 | ≤25% (≤25% for 0-25% of IKZF1 protein reduction) | – |
| COc1cscc1C(=O)NC1CCC(=O)NC1=O (centres unmarked) [Compound 54, N-(2,6-dioxopiperidin-3-yl)-4-methoxythiophene-3-carboxamide] | > 5.30 | – | % of CK1α protein reduction, based on densitometry values (CK1α; 1 μM): >25% (>25% for 26-74% of CK1α protein reduction); % of CK1α protein reduction, based on densitometry values (CK1α; 10 μM): >25% (>25% for 26-74% of CK1α protein reduction); % of CK1α protein reduction, based on densitometry values (CK1α; 20 μM): >25% (>25% for 26-74% of CK1α protein reduction) |
| COc1sccc1C(=O)N[C@H]1CCC(=O)NC1=O [Compound 21, (S)—N-(2,6-dioxopiperidin-3-yl)-2-methoxythiophene-3-carboxamide] | > 5.30 | ≤25% (≤25% for 0-25% of IKZF1 protein reduction) | % of CK1α protein reduction, based on densitometry values (CK1α; 20 μM): >25% (>25% for 26-74% of CK1α protein reduction) |
| CNc1sc(Cl)cc1C(=O)NC1CCC(=O)NC1=O (centres unmarked) [Compound 16, 5-chloro-N-(2,6-dioxopiperidin-3-yl)-2-(methylamino)thiophene-3-carboxamide] | > 5.30 | ≤25% (≤25% for 0-25% of IKZF1 protein reduction) | – |
| CC(=O)Nc1sc(C2CC2)cc1C(=O)NC1CCC(=O)NC1=O (centres unmarked) [Compound 44, 5-cyclopropyl-N-(2,6-dioxopiperidin-3-yl)-2-acetamidothiophene-3-carboxamide] | > 5.30 | ≤25% (≤25% for 0-25% of IKZF1 protein reduction) | – |

Source: patent publication US20230065745A1, “PIPERIDINE-2,6-DIONE DERIVATIVES WHICH BIND TO CEREBLON, AND METHODS OF USE THEREOF” (Captor Therapeutics S.A., priority 2019, published 2023)
